Data set [1] addresses T1, human TRPV1 receptor (Homo sapiens, UniProt Q8NER1).
T1 construct: expressed in transfected cells
Nature of the data set: Ca2+ influx assay (FLIPR, Fluo-4 AM) with capsaicin challenge in 1321N1 cells expressing recombinant TRPV1. The data set is classed as cell-based. The note with it: inhibition of 0.05 μM capsaicin response, hTRPV1 in 1321N1 human astrocytoma cells. Here is the method:
Dulbecco's modified Eagle medium (D-MEM) (with 4.5 mg/mL glucose) and fetal bovine serum were obtained from Hyclone Laboratories, Inc. (Logan, Utah). Dulbecco's phosphate-buffered saline (D-PBS) (with 1 mg/mL glucose and 3.6 mg/l Na pyruvate, without phenol red), L-glutamine, hygromycin B, and Lipofectamine® were obtained from Life Technologies (Grand Island, N.Y.). G418 sulfate was obtained from Calbiochem-Novabiochem Corp. (San Diego, Calif.). Capsaicin (8-methyl-N-vanillyl-6-nonenamide) was obtained from Sigma-Aldrich, Co. (St. Louis, Mo.). Fluo-4 AM (N-[4-[6-[(acetyloxy)methoxy]-2,7-difluoro-3-oxo-3H-xanthen-9-yl]-2-[2-[2-[bis[2-[(acetyloxy)methoxy]-2-oxyethyl]amino]-5-methy lphenoxy]ethoxy]phenyl]-N-[2-[(acetyloxy)methoxy]-2-oxyethyl]-glycine, (acetyloxy)methyl ester) was purchased from Molecular Probes (Eugene, Oreg.).
The cDNAs for the human TRPV1 receptor were isolated by reverse transcriptase-polymerase chain reaction (RT-PCR) from human small intestine poly A+RNA supplied by Clontech (Palo Alto, Calif.) using primers designed surrounding the initiation and termination codons identical to the published sequences (Hayes et al. Pain Vol. 88 pages 205-215, 2000). The resulting cDNA PCR products were subcloned into pCIneo mammalian expression vector (Promega) and fully sequenced using fluorescent dye-terminator reagents (Prism, Perkin-Elmer Applied Biosystems Division) and a Perkin-Elmer Applied Biosystems Model 373 DNA sequencer or Model 310 genetic analyzer. Expression plasmids encoding the hTRPV1 cDNA were transfected individually into 1321N1 human astrocytoma cells using Lipofectamine®. Forty-eight hours after transfection, the neomycin-resistant cells were selected with growth medium containing 800 μg/mL Geneticin (Gibco BRL). Surviving individual colonies were isolated and screened for TRPV1 receptor activity. Cells expressing recombinant homomeric TRPV1 receptors were maintained at 37° C. in D-MEM containing 4 mM L-glutamine, 300 μg/mL G418 (Cal-biochem) and 10% fetal bovine serum under a humidified 5% CO2 atmosphere.
The functional activity of compounds at the TRPV1 receptor was determined with a Ca^2+ influx assay and measurement of intracellular Ca^2+ levels ([Ca^2+]i). All compounds were tested over an 11-point half-log concentration range. Compound solutions were prepared in D-PBS (4× final concentration), and diluted serially across 96-well v-bottom tissue culture plates using a Biomek 2000 robotic automation workstation (Beckman-Coulter, Inc., Fullerton, Calif.). A 0.2 μM solution of the TRPV1 agonist capsaicin was also prepared in D-PBS. The fluorescent Ca^2+ chelating dye Fluo-4 AM was used as an indicator of the relative levels of [Ca^2+]i in a 96-well format using a Fluorescence Imaging Plate Reader (FLIPR)(Molecular Devices, Sunnyvale, Calif.). Cells were grown to confluency in 96-well black-walled tissue culture plates. Then, prior to the assay, the cells were loaded with 100 μL per well of Fluo-4 AM (2 μM, in D-PBS) for 1-2 hours at 23° C. Washing of the cells was performed to remove extracellular Fluo-4 AM (2×1 mL D-PBS per well), and afterward, the cells were placed in the reading chamber of the FLIPR instrument. 50 μL of the compound solutions were added to the cells at the 10 second time mark of the experimental run. Then, after a 3-minute time delay, 50 μL of the capsaicin solution was added at the, 190 seconds time mark (0.05 μM final concentration)([…]) to challenge the TRPV1 receptor. Time length of the experimental run was 240 seconds. Fluorescence readings were made at 1 to 5 second intervals over the course of the experimental run. The peak increase in relative fluorescence units (minus baseline) was calculated from the 190 seconds time mark to the end of the experimental run, and expressed as a percentage of the 0.05 μM capsaicin (control) response.

The nature of data set [2]: Plasma and brain concentrations in rats after an oral dose. The note with it: rat, fasted male Sprague-Dawley rats, two hours after dosing; for Kp at 2 h: brain/plasma. The data set is classed as in vivo. As for the experimental part:
The compounds were prepared as a solution in a 10% DMSO/poly(ethylene glycol)-400 (v/v). Blood and brain samples were obtained from each animal two hours after dosing.
Rat brain tissue was homogenized with two parts water (by weight). Test compound was selectively extracted from plasma and brain homogenate using liquid-liquid extraction with tert-butylmethylether. The compounds of interest were separated from co-extracted contaminants on a 50×3 mm, Luna CN column (Phenomenex), with an acetonitrile:0.1% aqueous trifluoroacetic acid mobile phase at a flow rate of 0.35 ml/min. Plasma and tissue concentrations were determined by HPLC-MS/MS on an API2000 with Turbo Ion Spray interface, with MRM detection in the positive ionization mode. To calibrate compound concentration, a separate portion of each tissue sample was spiked with a known quantity of test compound and analyzed simultaneously with the samples.

The mark [3] stands for this setting: brain, 10 μmol/kg PO, read-out: [Brain].
Where [4] appears, read: plasma, 10 μmol/kg PO, read-out: [Plasma].
Setting [5] is: brain, 30 μmol/kg oral, read-out: [Brain].
[6] abbreviates: plasma, 30 μmol/kg oral, read-out: [Plasma].

SMILES strings stand for the structures. Where two headings read alike, the source gives them in different places.

T1 sequence (Q8NER1 whole entry): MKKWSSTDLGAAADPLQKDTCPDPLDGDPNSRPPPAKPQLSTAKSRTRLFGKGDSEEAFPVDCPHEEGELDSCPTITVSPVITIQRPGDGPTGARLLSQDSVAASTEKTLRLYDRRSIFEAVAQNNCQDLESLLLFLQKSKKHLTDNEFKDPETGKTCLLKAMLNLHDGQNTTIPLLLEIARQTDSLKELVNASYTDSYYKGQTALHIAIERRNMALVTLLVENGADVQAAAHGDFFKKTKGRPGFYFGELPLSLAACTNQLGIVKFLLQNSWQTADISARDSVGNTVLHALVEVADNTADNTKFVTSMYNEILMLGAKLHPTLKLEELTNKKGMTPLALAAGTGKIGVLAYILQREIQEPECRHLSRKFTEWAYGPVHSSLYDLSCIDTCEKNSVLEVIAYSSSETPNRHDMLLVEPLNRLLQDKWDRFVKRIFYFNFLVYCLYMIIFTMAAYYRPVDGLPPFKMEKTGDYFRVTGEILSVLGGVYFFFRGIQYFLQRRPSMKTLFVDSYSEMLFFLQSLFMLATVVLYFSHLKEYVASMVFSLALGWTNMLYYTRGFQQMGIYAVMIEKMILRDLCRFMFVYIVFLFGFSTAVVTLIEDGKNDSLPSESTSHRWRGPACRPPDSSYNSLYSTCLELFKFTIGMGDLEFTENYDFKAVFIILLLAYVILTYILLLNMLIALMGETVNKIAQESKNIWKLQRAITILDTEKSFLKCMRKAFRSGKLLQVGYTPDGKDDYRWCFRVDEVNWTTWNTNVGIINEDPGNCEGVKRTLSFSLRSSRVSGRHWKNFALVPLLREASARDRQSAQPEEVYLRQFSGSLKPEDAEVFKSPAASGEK

`O[C@@H]1CCc2cccc(Nc3nc(C(F)F)c(-c4ccc(C(F)(F)F)cc4)o3)c2C1` [Compound 53, (2R)-8-({4-(difluoromethyl)-5-[4-(trifluoromethyl)phenyl]-1,3-oxazol-2-yl}amino)-1,2,3,4-tetrahydronaphthalen-2-ol]: the IC50 in data set [1] worked out at 38 nM. The Kp at 2 h in data set [2] (10 μmol/kg PO) was determined as 3.4. Moreover, the concentration at 2 h in data set [2] (setting [3]) came to 930 ng/g; in data set [2] (setting [4]), 270 ng/mL.

As for `OC1CCc2cccc(Nc3ncc(-c4ccc(C(F)(F)F)cc4)o3)c2C1` (stereo not drawn) [Compound A, 8-({5-[4-(trifluoromethyl)phenyl]-1,3-oxazol-2-yl}amino)-1,2,3,4-tetrahydronaphthalen-2-ol, reference compound], the IC50 in data set [1] worked out at 22 nM. The compound also had a Kp at 2 h in data set [2] (30 μmol/kg oral) of 0. For the same compound, the concentration at 2 h in data set [2] (setting [5]) stood at 0 ng/g; in data set [2] (setting [6]), 0 ng/mL.

With `Cc1nc(Nc2cccc3c2CC(O)CC3)oc1-c1ccc(Cl)cc1` (stereo not drawn) [Compound 13, 8-{[5-(4-chlorophenyl)-4-methyl-1,3-oxazol-2-yl]amino}-1,2,3,4-tetrahydronaphthalen-2-ol], the IC50 in data set [1] amounted to 108 nM. The compound also gave a partition ratio (Kp) at 2 h in data set [2] (30 μmol/kg oral) of 5.6. In addition, the concentration at 2 h in data set [2] (setting [5]) came out at 600 ng/g; in data set [2] (setting [6]), 93 ng/mL.

With `Cc1nc(Nc2cccc3c2CC(O)CC3)oc1-c1ccc(C#N)cc1` (stereo not drawn) [Compound 15, 4-{2-[(7-hydroxy-5,6,7,8-tetrahydronaphthalen-1-yl)amino]-4-methyl-1,3-oxazol-5-yl}benzonitrile], the IC50 in data set [1] came to 36 nM. For the same compound, the Kp at 2 h in data set [2] (30 μmol/kg oral) was determined as 1.3. Besides, the concentration at 2 h in data set [2] (setting [5]) stood at 310 ng/g; in data set [2] (setting [6]), 250 ng/mL.

`Cc1nc(Nc2cccc3c2CC(O)CC3)oc1-c1ccc(C(F)(F)F)cc1` (stereo not drawn) [Compound 12, 8-({4-methyl-5-[4-(trifluoromethyl)phenyl]-1,3-oxazol-2-yl}amino)-1,2,3,4-tetrahydronaphthalen-2-ol]: the concentration ratio (Kp) at 2 h in data set [2] (30 μmol/kg oral) was 6.3. In addition, the values for the concentration at 2 h in data set [2] (setting [5]) and in data set [2] (setting [6]) were 3300 ng/g and 490 ng/mL, respectively.

Regarding `Cc1nc(Nc2cccc3c2CC(O)CC3)oc1-c1ccc(C(F)(F)F)o1` (stereo not drawn) [Compound 31, 8-({4-methyl-5-[5-(trifluoromethyl)-2-furyl]-1,3-oxazol-2-yl}amino)-1,2,3,4-tetrahydronaphthalen-2-ol], the IC50 in data set [1] was 703 nM. Further, the Kp at 2 h in data set [2] (10 μmol/kg PO) is 1.3. The values for the concentration at 2 h in data set [2] (setting [3]) and in data set [2] (setting [4]) were 50 ng/g and 40 ng/mL, respectively.

Consider `Cc1nc(Nc2cccc3c2CC(O)CC3)oc1-c1ccc(C(F)(F)F)cc1F` (stereo not drawn) [Compound 5, 8-({5-[2-fluoro-4-(trifluoromethyl)phenyl]-4-methyl-1,3-oxazol-2-yl}amino)-1,2,3,4-tetrahydronaphthalen-2-ol], for which the IC50 in data set [1] is 43 nM. In data set [2] (30 μmol/kg oral), this compound had a concentration ratio (Kp) at 2 h of 3. Besides, the results for the concentration at 2 h in data set [2] (setting [5]) and in data set [2] (setting [6]) were 660 ng/g and 210 ng/mL, respectively.

As for `Cc1nc(Nc2cccc3c2CC(O)CC3)oc1-c1ccc(OC(F)(F)F)cc1` (stereo not drawn) [Compound 9, 8-({4-methyl-5-[4-(trifluoromethoxy)phenyl]-1,3-oxazol-2-yl}amino)-1,2,3,4-tetrahydronaphthalen-2-ol], in data set [1], the IC50 is 184 nM. For the same compound, the concentration ratio (Kp) at 2 h in data set [2] (30 μmol/kg oral) amounted to 4. Also, the concentration at 2 h in data set [2] (setting [5]) is 2100 ng/g; in data set [2] (setting [6]), 510 ng/mL.

Take `CCc1nc(Nc2cccc3c2C[C@H](O)CC3)oc1-c1ccc(C(F)(F)F)cc1` [Compound 43, (2R)-8-({4-ethyl-5-[4-(trifluoromethyl)phenyl]-1,3-oxazol-2-yl}amino)-1,2,3,4-tetrahydronaphthalen-2-ol]: the IC50 in data set [1] turned out to be 74 nM. In data set [2] (10 μmol/kg PO), this compound registered a Kp at 2 h of 2.8. For the same compound, the values for the concentration at 2 h in data set [2] (setting [3]) and in data set [2] (setting [4]) were 410 ng/g and 140 ng/mL, respectively.

As to `Cc1nc(Nc2cccc3c2CC(O)CC3)oc1-c1ccc(C(F)(F)F)c(F)c1F` (stereo not drawn) [Compound 6, 8-({5-[2,3-difluoro-4-(trifluoromethyl)phenyl]-4-methyl-1,3-oxazol-2-yl}amino)-1,2,3,4-tetrahydronaphthalen-2-ol], the IC50 in data set [1] is 62 nM. Further, the Kp at 2 h in data set [2] (30 μmol/kg oral) turned out to be 1.7. The figures for the concentration at 2 h in data set [2] (setting [5]) and in data set [2] (setting [6]) were 230 ng/g and 130 ng/mL, respectively.

On to `Cc1nc(Nc2cccc3c2CC(O)CO3)oc1-c1ccc(C(F)(F)F)cc1` (stereo not drawn) [Compound 51, 5-({4-methyl-5-[4-(trifluoromethyl)phenyl]-1,3-oxazol-2-yl}amino)chroman-3-ol], for which, in data set [1], the concentration for half-maximal inhibition (IC50) was found to be 618 nM. The same compound came in with a Kp at 2 h in data set [2] (10 μmol/kg PO) of 2.7. The concentration at 2 h in data set [2] (setting [3]) is 800 ng/g; in data set [2] (setting [4]), 300 ng/mL.

In the case of `Cc1nc(Nc2cccc3c2CC(O)CC3)oc1-c1ccc(S(F)(F)(F)(F)F)cc1` (stereo not drawn) [Compound 40, 8-({4-methyl-5-[4-(pentafluoro-lambda˜6˜sulfanyl)phenyl]-1,3-oxazol-2-yl}amino)-1,2,3,4-tetrahydronaphthalen-2-ol], in data set [1], the half-inhibitory concentration (IC50) is 52 nM. For the same compound, the partition ratio (Kp) at 2 h in data set [2] (10 μmol/kg PO) turned out to be 1.4. Further, the concentration at 2 h amounted to 160 ng/g in data set [2] (setting [3]) and 110 ng/mL in data set [2] (setting [4]).

Regarding `C=C(C)[C@H]1CC=C(c2oc(Nc3cccc4c3CC(O)CC4)nc2C)CC1` (stereo partly drawn) [Compound 32, 8-({5-[(4R)-4-isopropenylcyclohex-1-en-1-yl]-4-methyl-1,3-oxazol-2-yl}amino)-1,2,3,4-tetrahydronaphthalen-2-ol], the IC50 in data set [1] came out at 395 nM. The compound further showed a Kp at 2 h in data set [2] (10 μmol/kg PO) of 1.9. For the same compound, the concentration at 2 h is 15 ng/g in data set [2] (setting [3]) and 9 ng/mL in data set [2] (setting [4]).

The values above are taken from patent US7998993B2, “TRPV1 antagonists” (Abbott Laboratories, priority 2007, dated 2011).
